# Reference: patent US8372865B2, “Dihydropyridone amides as P2X7 modulators” (Roche Palo Alto LLC, priority 2008, dated 2013)
# Target: T1, P2X7 receptor (UniProt Q99572)
# T1 sequence (Q99572 1-595): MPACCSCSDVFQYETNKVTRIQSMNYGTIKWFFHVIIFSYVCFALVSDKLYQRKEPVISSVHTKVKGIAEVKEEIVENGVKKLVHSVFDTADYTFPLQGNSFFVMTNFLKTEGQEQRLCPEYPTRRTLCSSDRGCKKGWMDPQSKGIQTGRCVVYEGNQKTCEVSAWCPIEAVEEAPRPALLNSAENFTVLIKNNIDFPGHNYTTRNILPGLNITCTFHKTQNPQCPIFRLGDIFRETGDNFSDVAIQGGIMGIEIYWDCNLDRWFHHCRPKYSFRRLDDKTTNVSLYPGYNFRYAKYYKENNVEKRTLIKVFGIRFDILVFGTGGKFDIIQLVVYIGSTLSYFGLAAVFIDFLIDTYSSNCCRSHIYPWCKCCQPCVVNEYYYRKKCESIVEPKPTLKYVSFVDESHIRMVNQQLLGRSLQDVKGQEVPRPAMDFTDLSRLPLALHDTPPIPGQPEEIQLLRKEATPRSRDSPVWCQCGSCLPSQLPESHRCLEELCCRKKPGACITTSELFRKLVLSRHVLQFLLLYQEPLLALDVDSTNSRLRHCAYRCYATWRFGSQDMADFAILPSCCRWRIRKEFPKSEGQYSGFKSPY
# Experiment: pKi of Table 1 (assay not stated)
# Format: cell-based
# Procedure: Intracellular Calcium Flux (FLIPR) Assay
# Stock solutions of compounds were prepared from powders as a 10 mM DMSO stock solution. These solutions were stored at RT during the two week period of these experiments to prevent freeze-thaw of the DMSO stocks. The DMSO stocks were added to the appropriate assay buffer at a concentration of 10 μM, and then diluted serially to the final concentrations that were tested. […] The aqueous solutions of compounds as well as ATP (Sigma A7699) and BzATP (Sigma B6396) were prepared fresh for each day of experiment.
# 1321N1 cells stably expressing the full length human P2X7 gene (1321N1-hP2X7) and HEK293 cells stably expressing the full length rat P2X7 gene (HEK293-rP2X7) were obtained from the Roche Cell Culture Facility. 1321N1-hP2X7 cells were grown in Dulbecco's Modified Eagle's Medium (DMEM) high glucose supplemented with 10% FBS and 250 μg/mL G418. HEK293-rP2X7 cells were grown in DMEM/F-12 supplemented with 10% FBS, 1 mM CaCl2, 2 mM MgCl2, 2 mM L-Glutamine and 500 μg/ml G418. Cells were split such that they never became>70% confluent.
# On the day prior to the experiment, 1321N1-hP2X7 or HEK293-rP2X7 cells were released into suspension with calcium-free PBS+Versene and washed by centrifugation with calcium-free PBS to remove the Versene. Cells were resuspended in growth medium at a density of 2.5×10^5 cells/mL and seeded into black walled, clear bottom 96 well plates (50,000 cells/well) approximately 18 hr prior to intracellular calcium flux experiments.
# On the day of the experiment, plates were washed with FLIPR buffer (calcium- and magnesium-free Hank's Balanced Salt Solution (HBSS) supplemented with 10 mM Hepes, 2.5 mM probenecid and 2 mM calcium chloride) using a BIO-TEK 96 channel plate washer and incubated with […] fluo-3 dye at 37° C. for one hr. The dye was then removed by plate washing and the cells were allowed to equilibrate for 20 min at room temperature with antagonist or vehicle (FLIPR buffer). Agonist (100 μM BzATP final concentration for hP2X7; 5 μM BzATP final concentration or rP2X7) was added online with the FLIPR and fluorescence measurements made at 1 sec intervals for 60 sec followed by 3 sec intervals for a further 4 min (5 min total). A final addition of 5 μM ionomycin was made and the maximal BzATP-evoked fluorescence normalized to the maximal ionomycin-evoked fluorescence.
row,pKi,SMILES
1,5.86,"O=C1CC(c2cccc(F)c2)C(C(=O)Nc2cccc3[nH]ccc23)=CN1 (stereo not shown) [Compound 1, 4-(3-Fluoro-phenyl)-6-oxo-1,4,5,6-tetrahydro-pyridine-3-carboxylic acid (1H-indol-4-yl)-amide]"
2,5.24,"O=C1CC(c2cccc(F)c2)C(C(=O)Nc2ccc3cc[nH]c3c2)=CN1 (stereo not shown) [Compound 2, 4-(3-Fluoro-phenyl)-6-oxo-1,4,5,6-tetrahydro-pyridine-3-carboxylic acid (1H-indol-6-yl)-amide]"
3,6.953,"O=C1C[C@@H](c2cccc(F)c2)C(C(=O)Nc2ccc3ncccc3c2Br)=CN1 [Compound 4, (S)-4-(3-Fluoro-phenyl)-6-oxo-1,4,5,6-tetrahydro-pyridine-3-carboxylic acid (5-bromo-quinolin-6-yl)-amide]"
4,5.345,"O=C1C[C@@H](c2ccc(F)cc2)C(C(=O)Nc2cccc3ncccc23)=CN1 [Compound 5, (S)-4-(4-Fluoro-phenyl)-6-oxo-1,4,5,6-tetrahydro-pyridine-3-carboxylic acid quinolin-5-ylamide]"
5,7.135,"O=C1C[C@@H](c2ccc(F)cc2)C(C(=O)Nc2ccc3ncccc3c2Br)=CN1 [Compound 6, (S)-4-(4-Fluoro-phenyl)-6-oxo-1,4,5,6-tetrahydro-pyridine-3-carboxylic acid (5-bromo-quinolin-6-yl)-amide]"
6,6.673,"CCc1cc2ncccc2cc1NC(=O)C1=CNC(=O)C[C@H]1c1ccc(F)cc1 [Compound 7, (S)-4-(4-Fluoro-phenyl)-6-oxo-1,4,5,6-tetrahydro-pyridine-3-carboxylic acid (7-ethyl-quinolin-6-yl)-amide]"
7,7.69,"CCc1c(NC(=O)C2=CNC(=O)C[C@H]2c2ccc(F)cc2)ccc2ncccc12 [Compound 8, (S)-4-(4-Fluoro-phenyl)-6-oxo-1,4,5,6-tetrahydro-pyridine-3-carboxylic acid (5-ethyl-quinolin-6-yl)-amide]"
8,7.71,"Cc1cc2ccn(CCO)c2cc1NC(=O)C1=CNC(=O)C[C@H]1c1ccc(F)cc1 [Compound 9, (S)-4-(4-Fluoro-phenyl)-6-oxo-1,4,5,6-tetrahydro-pyridine-3-carboxylic acid [1-(2-hydroxy-ethyl)-5-methyl-1H-indol-6-yl]-amide]"
9,6.645,"Cc1c(NC(=O)C2=CNC(=O)C[C@H]2c2cccc(F)c2)ccc2ncccc12 [Compound 10, (S)-4-(3-Fluoro-phenyl)-6-oxo-1,4,5,6-tetrahydro-pyridine-3-carboxylic acid (5-methyl-quinolin-6-yl)-amide]"
10,5.415,"O=C1C[C@@H](c2cccc(F)c2)C(C(=O)Nc2cc3c(cc2Br)CCC(=O)N3)=CN1 [Compound 11, (S)-4-(3-Fluoro-phenyl)-6-oxo-1,4,5,6-tetrahydro-pyridine-3-carboxylic acid (6-bromo-2-oxo-1,2,3,4-tetrahydro-quinolin-7-yl)-amide]"
11,7.695,"Cc1ccc2ncccc2c1NC(=O)C1=CNC(=O)C[C@H]1c1cccc(F)c1 [Compound 12, (S)-4-(3-Fluoro-phenyl)-6-oxo-1,4,5,6-tetrahydro-pyridine-3-carboxylic acid (6-methyl-quinolin-5-yl)-amide]"
12,6.9,"CN1C(=O)CCc2cc(Br)c(NC(=O)C3=CNC(=O)C[C@H]3c3ccc(F)cc3)cc21 [Compound 13, (S)-4-(4-Fluoro-phenyl)-6-oxo-1,4,5,6-tetrahydro-pyridine-3-carboxylic acid (6-bromo-1-methyl-2-oxo-1,2,3,4-tetrahydro-quinolin-7-yl)-amide]"
13,6.425,"O=C1C[C@@H](c2ccc(F)cc2)C(C(=O)Nc2cccc3cnccc23)=CN1 [Compound 14, (S)-4-(4-Fluoro-phenyl)-6-oxo-1,4,5,6-tetrahydro-pyridine-3-carboxylic acid isoquinolin-5-ylamide]"
14,7.46,"Cc1ccc2c(NC(=O)C3=CNC(=O)C[C@H]3c3ccc(F)cc3)cccc2n1 [Compound 15, (S)-4-(4-Fluoro-phenyl)-6-oxo-1,4,5,6-tetrahydro-pyridine-3-carboxylic acid (2-methyl-quinolin-5-yl)-amide]"
15,7.575,"CCc1cc2ccn(CCO)c2cc1NC(=O)C1=CNC(=O)C[C@H]1c1ccc(F)cc1 [Compound 16, (S)-4-(4-Fluoro-phenyl)-6-oxo-1,4,5,6-tetrahydro-pyridine-3-carboxylic acid [5-ethyl-1-(2-hydroxy-ethyl)-1H-indol-6-yl]-amide]"
16,6.805,"Cc1c(NC(=O)C2=CNC(=O)C[C@H]2c2ccc(F)cc2)ccc2ncccc12 [Compound 17, (S)-4-(4-Fluoro-phenyl)-6-oxo-1,4,5,6-tetrahydro-pyridine-3-carboxylic acid (5-methyl-quinolin-6-yl)-amide]"
17,7.16,"Cc1cc2c(cc1NC(=O)C1=CNC(=O)C[C@H]1c1ccc(F)cc1)N(C)C(=O)CC2 [Compound 18, (S)-4-(4-Fluoro-phenyl)-6-oxo-1,4,5,6-tetrahydro-pyridine-3-carboxylic acid (1,6-dimethyl-2-oxo-1,2,3,4-tetrahydro-quinolin-7-yl)-amide]"
18,5.535,"O=C1C[C@@H](c2ccc(F)cc2)C(C(=O)Nc2cc3c(cc2Br)CCC(=O)N3CCO)=CN1 [Compound 19, (S)-4-(4-Fluoro-phenyl)-6-oxo-1,4,5,6-tetrahydro-pyridine-3-carboxylic acid [6-bromo-1-(2-hydroxy-ethyl)-2-oxo-1,2,3,4-tetrahydro-quinolin-7-yl]-amide]"
19,6.825,"Cc1cc2ncccc2cc1NC(=O)C1=CNC(=O)C[C@H]1c1cccc(F)c1 [Compound 20, (S)-4-(3-Fluoro-phenyl)-6-oxo-1,4,5,6-tetrahydro-pyridine-3-carboxylic acid (7-methyl-quinolin-6-yl)-amide]"
20,5.925,"O=C1C[C@@H](c2cccc(F)c2)C(C(=O)Nc2cc3c(cc2Br)OCC(=O)N3)=CN1 [Compound 21, (S)-4-(3-Fluoro-phenyl)-6-oxo-1,4,5,6-tetrahydro-pyridine-3-carboxylic acid (7-bromo-3-oxo-3,4-dihydro-2H-benzo[1,4]oxazin-6-yl)-amide]"
21,6.905,"CN1C(=O)COc2cc(Br)c(NC(=O)C3=CNC(=O)C[C@H]3c3cccc(F)c3)cc21 [Compound 22, (S)-4-(3-Fluoro-phenyl)-6-oxo-1,4,5,6-tetrahydro-pyridine-3-carboxylic acid (7-bromo-4-methyl-3-oxo-3,4-dihydro-2H-benzo[1,4]oxazin-6-yl)-amide]"
22,6.73,"Cc1cc2c(cc1NC(=O)C1=CNC(=O)C[C@H]1c1ccc(F)cc1)N(C)C(=O)CO2 [Compound 23, (S)-4-(4-Fluoro-phenyl)-6-oxo-1,4,5,6-tetrahydro-pyridine-3-carboxylic acid (4,7-dimethyl-3-oxo-3,4-dihydro-2H-benzo[1,4]oxazin-6-yl)-amide]"
23,7.015,"Cc1cc2c(cc1NC(=O)C1=CNC(=O)C[C@H]1c1cccc(F)c1)N(C)C(=O)CO2 [Compound 24, (S)-4-(3-Fluoro-phenyl)-6-oxo-1,4,5,6-tetrahydro-pyridine-3-carboxylic acid (4,7-dimethyl-3-oxo-3,4-dihydro-2H-benzo[1,4]oxazin-6-yl)-amide]"
24,6.88,"CCc1cc2c(cc1NC(=O)C1=CNC(=O)C[C@H]1c1ccc(F)cc1)N(C)C(=O)CO2 [Compound 25, (S)-4-(4-Fluoro-phenyl)-6-oxo-1,4,5,6-tetrahydro-pyridine-3-carboxylic acid (7-ethyl-4-methyl-3-oxo-3,4-dihydro-2H-benzo[1,4]oxazin-6-yl)-amide]"
25,7.125,"CCc1cc2c(cc1NC(=O)C1=CNC(=O)C[C@H]1c1cccc(F)c1)N(C)C(=O)CO2 [Compound 26, (S)-4-(3-Fluoro-phenyl)-6-oxo-1,4,5,6-tetrahydro-pyridine-3-carboxylic acid (7-ethyl-4-methyl-3-oxo-3,4-dihydro-2H-benzo[1,4]oxazin-6-yl)-amide]"
